From patent US10421750B2, “Substituted morpholine derivatives having activity against pain” (ESTEVE PHARMACEUTICALS, S.A., priority 2015, dated 2019)

biological target: human σ1 receptor (Homo sapiens (Human), UniProt Q99720); experiment: Human σ1 receptor radioligand assay ([3H](+)-pentazocine, transfected HEK-293 membranes); settings: binding to the σ1 receptor expressed as Ki, [3H](+)-pentazocine 5 nM
Description: Human σ1 Receptor Radioligand Assay
To investigate binding properties of test compounds to human σ1 receptor, transfected HEK-293 membranes and [^3H](+)-pentazocine (Perkin Elmer, NET-1056), as the radioligand, were used. The assay was carried out with 7 μg of membrane suspension, 5 nM of [^3H](+)-pentazocine in either absence or presence of either buffer or 10 μM Haloperidol for total and non-specific binding, respectively. Binding buffer contained Tris-HCl 50 mM at pH 8. Plates were incubated at 37° C. for 120 minutes. After the incubation period, the reaction mix was then transferred to MultiScreen HTS, FC plates (Millipore), filtered and plates were washed 3 times with ice-cold 10 mM Tris-HCL (pH7.4). Filters were dried and counted at approximately 40% efficiency in a MicroBeta scintillation counter (Perkin-Elmer) using EcoScint liquid scintillation cocktail

Chain of human σ1 receptor (Q99720 whole entry): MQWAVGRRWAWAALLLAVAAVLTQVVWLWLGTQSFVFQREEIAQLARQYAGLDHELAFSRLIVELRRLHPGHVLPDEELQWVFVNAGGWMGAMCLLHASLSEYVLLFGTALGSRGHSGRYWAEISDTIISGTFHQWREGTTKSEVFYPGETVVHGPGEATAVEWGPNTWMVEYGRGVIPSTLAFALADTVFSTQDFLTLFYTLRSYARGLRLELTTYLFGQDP

Row | SMILES | Ki
1 | COc1ccc(CN2CCOC(C3CCN(Cc4ccccc4)CC3)C2)cc1 (stereo not drawn) [Example 49, 2-(1-benzylpiperidin-4-yl)-4-(4-methoxybenzyl)morpholine] | < 100 nM
2 | CCN1CCOC(C2CCN(Cc3ccccc3)CC2)C1 (stereo not drawn) [Example 50, 2-(1-benzylpiperidin-4-yl)-4-ethylmorpholine] | < 100 nM
3 | CC(C)CCN1CCC(C2CN(C(=O)c3ccccc3)CC3(CC3)O2)CC1 (stereo not drawn) [Example 51, (5-(1-Isopentylpiperidin-4-yl)-4-oxa-7-azaspiro[2.5]octan-7-yl)(phenyl)methanone] | < 100 nM
